Laboratory results taken from PubChem BioAssay AID1963841 (Molecular Pharmacology Branch, DTP, NCI, 2024).

Test system: 439559-082-T-J2-PDC spheroid viability
Assay: Anticancer human tumor 439559-082-T-J2-PDC patient-derived colon adenocarcinoma cell line growth inhibition [POLQ]
Conditions: spheroids with HUVEC and MSC; for IC50: curve of first compound; for viability, T/C: stronger effect = lower value
Summary of the method: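 Complex spheroid viability model combining PDC tumour cells with endothelial (HUVEC) and MSC stromal cells. Novobiocin, ART-558 or RP6685 were tested singly and in combination with standard and investigational anticancer drugs. Each was titrated in half-log steps from near clinical Cmax, or from 10 microM where Cmax was unknown.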

[1] = second compound 0.0316 µM, first compound 0.0316 µM
[2] = second compound 0.0316 µM, first compound 0.1 µM
[3] = second compound 0.0316 µM, first compound 0.316 µM
[4] = second compound 0.0316 µM, first compound 1 µM
[5] = second compound 0.0316 µM, first compound 3.16 µM
[6] = second compound 0.0316 µM, first compound 10 µM
[7] = second compound 0.1 µM, first compound 0.0316 µM
[8] = second compound 0.1 µM, first compound 0.1 µM
[9] = second compound 0.1 µM, first compound 0.316 µM
[10] = second compound 0.1 µM, first compound 1 µM
[11] = second compound 0.1 µM, first compound 3.16 µM
[12] = second compound 0.1 µM, first compound 10 µM
[13] = second compound 0.316 µM, first compound 0.0316 µM
[14] = second compound 0.316 µM, first compound 0.1 µM
[15] = second compound 0.316 µM, first compound 0.316 µM
[16] = second compound 0.316 µM, first compound 1 µM
[17] = second compound 0.316 µM, first compound 3.16 µM
[18] = second compound 0.316 µM, first compound 10 µM
[19] = second compound 1 µM, first compound 0.0316 µM
[20] = second compound 1 µM, first compound 0.1 µM
[21] = second compound 1 µM, first compound 0.316 µM
[22] = second compound 1 µM, first compound 1 µM
[23] = second compound 1 µM, first compound 3.16 µM
[24] = second compound 1 µM, first compound 10 µM
[25] = second compound 3.16 µM, first compound 0.0316 µM
[26] = second compound 3.16 µM, first compound 0.1 µM
[27] = second compound 3.16 µM, first compound 0.316 µM
[28] = second compound 3.16 µM, first compound 1 µM
[29] = second compound 3.16 µM, first compound 3.16 µM
[30] = second compound 3.16 µM, first compound 10 µM
[31] = second compound 10 µM, first compound 0.0316 µM
[32] = second compound 10 µM, first compound 0.1 µM
[33] = second compound 10 µM, first compound 0.316 µM
[34] = second compound 10 µM, first compound 1 µM
[35] = second compound 10 µM, first compound 3.16 µM
[36] = second compound 10 µM, first compound 10 µM
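Further: spheroids exposed to compounds for seven days before readout.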
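Wherever viability, T/C is given: 100% = DMSO vehicle control viability.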

SMILES: CCCS(=O)(=O)Nc1ccc(F)c(C(=O)c2c[nH]c3ncc(-c4ccc(Cl)cc4)cc23)c1F + Cc1cccc(N(C)C(=O)C2C(O)CCN2c2nc(C)cc(C(F)(F)F)c2C#N)c1
- IC50 (second compound 0.0316 µM): > 10000 nM
- IC50 (second compound 0.1 µM): > 10000 nM
- IC50 (second compound 0.316 µM): > 10000 nM
- IC50 (second compound 1 µM): > 10000 nM
- IC50 (second compound 3.16 µM): > 10000 nM
- IC50 (second compound 10 µM): > 10000 nM
- viability, T/C [1]: 103%
- viability, T/C [2]: 106%
- viability, T/C [3]: 92.1%
- viability, T/C [4]: 97%
- viability, T/C [5]: 94.8%
- viability, T/C [6]: 80.3%
- viability, T/C [7]: 100%
- viability, T/C [8]: 96.1%
- viability, T/C [9]: 91.5%
- viability, T/C [10]: 94.4%
- viability, T/C [11]: 113%
- viability, T/C [12]: 75.8%
- viability, T/C [13]: 93.5%
- viability, T/C [14]: 94.4%
- viability, T/C [15]: 106%
- viability, T/C [16]: 86%
- viability, T/C [17]: 99.4%
- viability, T/C [18]: 79.5%
- viability, T/C [19]: 96.2%
- viability, T/C [20]: 103%
- viability, T/C [21]: 92.8%
- viability, T/C [22]: 95.3%
- viability, T/C [23]: 91.5%
- viability, T/C [24]: 78.3%
- viability, T/C [25]: 99%
- viability, T/C [26]: 90.2%
- viability, T/C [27]: 94.9%
- viability, T/C [28]: 102%
- viability, T/C [29]: 102%
- viability, T/C [30]: 74.4%
- viability, T/C [31]: 101%
- viability, T/C [32]: 96.3%
- viability, T/C [33]: 82.8%
- viability, T/C [34]: 90.2%
- viability, T/C [35]: 90.2%
- viability, T/C [36]: 70.5%

SMILES: Nc1ccn(C2OC(CO)C(O)C2(F)F)c(=O)n1 (stereo not given) + Cc1cccc(N(C)C(=O)C2C(O)CCN2c2nc(C)cc(C(F)(F)F)c2C#N)c1
- IC50 (second compound 0.0316 µM): 923 nM
- IC50 (second compound 0.1 µM): 952 nM
- IC50 (second compound 0.316 µM): 829 nM
- IC50 (second compound 1 µM): 676 nM
- IC50 (second compound 3.16 µM): 802 nM
- IC50 (second compound 10 µM): 829 nM
- viability, T/C [1]: 77.8%
- viability, T/C [2]: 71.7%
- viability, T/C [3]: 60.6%
- viability, T/C [4]: 49.9%
- viability, T/C [5]: 37.5%
- viability, T/C [6]: 30.6%
- viability, T/C [7]: 85.4%
- viability, T/C [8]: 76.9%
- viability, T/C [9]: 63.8%
- viability, T/C [10]: 48.5%
- viability, T/C [11]: 39.8%
- viability, T/C [12]: 32.1%
- viability, T/C [13]: 82.5%
- viability, T/C [14]: 75.8%
- viability, T/C [15]: 63.3%
- viability, T/C [16]: 47.5%
- viability, T/C [17]: 35.4%
- viability, T/C [18]: 29.6%
- viability, T/C [19]: 83.2%
- viability, T/C [20]: 76.1%
- viability, T/C [21]: 61.3%
- viability, T/C [22]: 43.1%
- viability, T/C [23]: 37.7%
- viability, T/C [24]: 30.9%
- viability, T/C [25]: 79.8%
- viability, T/C [26]: 69.3%
- viability, T/C [27]: 59.4%
- viability, T/C [28]: 47.1%
- viability, T/C [29]: 38.3%
- viability, T/C [30]: 31.4%
- viability, T/C [31]: 80.3%
- viability, T/C [32]: 70.6%
- viability, T/C [33]: 57.1%
- viability, T/C [34]: 49.5%
- viability, T/C [35]: 40%
- viability, T/C [36]: 35%

SMILES: COc1cccc2c1C(=O)c1c(O)c3c(c(O)c1C2=O)CC(O)(C(=O)CO)CC3OC1CC(N)C(O)C(C)O1 (stereo not given) + Nc1ccc(C#CCN(C(=O)Cc2ncc(C(F)(F)F)cc2C(F)(F)F)c2ccc(F)cc2)nn1
- IC50 (second compound 0.0316 µM): > 10000 nM
- IC50 (second compound 0.1 µM): > 10000 nM
- IC50 (second compound 0.316 µM): > 10000 nM
- IC50 (second compound 1 µM): > 10000 nM
- IC50 (second compound 3.16 µM): > 10000 nM
- IC50 (second compound 10 µM): 7090 nM
- viability, T/C [1]: 90.2%
- viability, T/C [2]: 83.1%
- viability, T/C [3]: 79.2%
- viability, T/C [4]: 67.8%
- viability, T/C [5]: 60.7%
- viability, T/C [6]: 60.5%
- viability, T/C [7]: 99.9%
- viability, T/C [8]: 98.4%
- viability, T/C [9]: 79.8%
- viability, T/C [10]: 66.5%
- viability, T/C [11]: 58.9%
- viability, T/C [12]: 65.1%
- viability, T/C [13]: 94.7%
- viability, T/C [14]: 82.5%
- viability, T/C [15]: 78.7%
- viability, T/C [16]: 59.3%
- viability, T/C [17]: 58.1%
- viability, T/C [18]: 66.7%
- viability, T/C [19]: 103%
- viability, T/C [20]: 85.5%
- viability, T/C [21]: 74.6%
- viability, T/C [22]: 64%
- viability, T/C [23]: 57.2%
- viability, T/C [24]: 55.8%
- viability, T/C [25]: 87.5%
- viability, T/C [26]: 83.2%
- viability, T/C [27]: 61.2%
- viability, T/C [28]: 62.4%
- viability, T/C [29]: 67.2%
- viability, T/C [30]: 57.7%
- viability, T/C [31]: 78.8%
- viability, T/C [32]: 74.2%
- viability, T/C [33]: 70.8%
- viability, T/C [34]: 59.7%
- viability, T/C [35]: 62.6%
- viability, T/C [36]: 45.1%

SMILES: CNCc1ccc(-c2[nH]c3cc(F)cc4c3c2CCNC4=O)cc1 + Nc1ccc(C#CCN(C(=O)Cc2ncc(C(F)(F)F)cc2C(F)(F)F)c2ccc(F)cc2)nn1
- IC50 (second compound 0.0316 µM): > 10000 nM
- IC50 (second compound 0.1 µM): > 10000 nM
- IC50 (second compound 0.316 µM): > 10000 nM
- IC50 (second compound 1 µM): > 10000 nM
- IC50 (second compound 3.16 µM): > 10000 nM
- IC50 (second compound 10 µM): > 10000 nM
- viability, T/C [1]: 91.6%
- viability, T/C [2]: 106%
- viability, T/C [3]: 102%
- viability, T/C [4]: 87.2%
- viability, T/C [5]: 116%
- viability, T/C [6]: 97.7%
- viability, T/C [7]: 100%
- viability, T/C [8]: 95.3%
- viability, T/C [9]: 97.5%
- viability, T/C [10]: 101%
- viability, T/C [11]: 102%
- viability, T/C [12]: 110%
- viability, T/C [13]: 109%
- viability, T/C [14]: 108%
- viability, T/C [15]: 87.4%
- viability, T/C [16]: 96.4%
- viability, T/C [17]: 105%
- viability, T/C [18]: 101%
- viability, T/C [19]: 101%
- viability, T/C [20]: 97.4%
- viability, T/C [21]: 105%
- viability, T/C [22]: 90.5%
- viability, T/C [23]: 107%
- viability, T/C [24]: 122%
- viability, T/C [25]: 100%
- viability, T/C [26]: 112%
- viability, T/C [27]: 111%
- viability, T/C [28]: 97.4%
- viability, T/C [29]: 110%
- viability, T/C [30]: 98.2%
- viability, T/C [31]: 94.8%
- viability, T/C [32]: 104%
- viability, T/C [33]: 110%
- viability, T/C [34]: 102%
- viability, T/C [35]: 104%
- viability, T/C [36]: 105%

SMILES: CCc1c2c(nc3ccc(O)cc13)-c1cc3c(c(=O)n1C2)COC(=O)[C@]3(O)CC + Cc1cccc(N(C)C(=O)C2C(O)CCN2c2nc(C)cc(C(F)(F)F)c2C#N)c1
- IC50 (second compound 0.0316 µM): 739 nM
- IC50 (second compound 0.1 µM): 705 nM
- IC50 (second compound 0.316 µM): 698 nM
- IC50 (second compound 1 µM): 708 nM
- IC50 (second compound 3.16 µM): 968 nM
- IC50 (second compound 10 µM): 702 nM
- viability, T/C (second compound 0.0316 µM, first compound 0.00316 µM): 92.9%
- viability, T/C (second compound 0.0316 µM, first compound 0.01 µM): 82.2%
- viability, T/C [1]: 70.8%
- viability, T/C [2]: 74.7%
- viability, T/C [3]: 64%
- viability, T/C [4]: 43.2%
- viability, T/C (second compound 0.1 µM, first compound 0.00316 µM): 90.9%
- viability, T/C (second compound 0.1 µM, first compound 0.01 µM): 87%
- viability, T/C [7]: 74.5%
- viability, T/C [8]: 68.3%
- viability, T/C [9]: 65.7%
- viability, T/C [10]: 42.8%
- viability, T/C (second compound 0.316 µM, first compound 0.00316 µM): 95.3%
- viability, T/C (second compound 0.316 µM, first compound 0.01 µM): 82.2%
- viability, T/C [13]: 76.3%
- viability, T/C [14]: 70.6%
- viability, T/C [15]: 63%
- viability, T/C [16]: 42.9%
- viability, T/C (second compound 1 µM, first compound 0.00316 µM): 90.9%
- viability, T/C (second compound 1 µM, first compound 0.01 µM): 90.9%
- viability, T/C [19]: 74%
- viability, T/C [20]: 67.1%
- viability, T/C [21]: 62.5%
- viability, T/C [22]: 44.9%
- viability, T/C (second compound 3.16 µM, first compound 0.00316 µM): 90.3%
- viability, T/C (second compound 3.16 µM, first compound 0.01 µM): 76.8%
- viability, T/C [25]: 72.1%
- viability, T/C [26]: 71%
- viability, T/C [27]: 62.8%
- viability, T/C [28]: 47.2%
- viability, T/C (second compound 10 µM, first compound 0.00316 µM): 80.6%
- viability, T/C (second compound 10 µM, first compound 0.01 µM): 76.3%
- viability, T/C [31]: 66.9%
- viability, T/C [32]: 68.4%
- viability, T/C [33]: 60.5%
- viability, T/C [34]: 44.9%
